# Measured values taken from patent US20160037775A1, “ACTIVE INGREDIENT COMBINATIONS HAVING INSECTICIDAL AND ACARICIDAL PROPERTIES” (priority 2010, published 2016).
# Read-outs that look alike come from different tables or passages of the source.
# Legend:
# Assay type in all cases: in vivo
# Myzus persicae = assay: whole plant or invertebrate
# From the text: (§1) If the actual kill rate is greater than that calculated, the kill rate of the combination is superadditive, which means that a synergistic effect is present. In this case, the kill rate actually observed must be greater than the value calculated from the above formula for the expected kill rate (E).
# (§2) • 78 parts by weight of acetone • 1.5 parts by weight of dimethylformamide Emulsifier: 0.5 part by weight of alkylaryl polyglycol ether
# (§3) To produce an appropriate active ingredient formulation, 1 part by weight of active ingredient is mixed with the stated amounts of solvent and emulsifier, and the concentrate is diluted with emulsifier-containing water to the desired concentration.
# After the desired time, the kill in % is determined. 100% means that all aphids have been killed; 0% means that no aphids have been killed. The kill rates determined are entered into Colby's formula.
# Tetranychus urticae = assay: Tetranychus test (OP-resistant/spray treatment)
# From the text: (§4) The expected action for a given combination of two active ingredients can be calculated according to S. R. Colby, Weeds 15 (1967), 20-22 as follows:
# (§5) • X is the kill rate, expressed in % of the untreated control, in the case of use of active ingredient A in an application rate of m g/ha or in a concentration of m ppm, • Y is the kill rate, expressed in % of the untreated control, in the case of use of active ingredient B in an application rate of n g/ha or in a concentration of n ppm, and • E is the kill rate, expressed in % of the untreated control, in the case of use of active ingredients A and B in application rates of m and n g/ha or in a concentration of m and n ppm, then
# as §1, §2, §3
# Discs of bean leaves (Phaseolus vulgaris) infested by all stages of the two-spotted spider mite (Tetranychus urticae) are sprayed with an active ingredient formulation of the desired concentration.
# After the desired period of time, the effect in % is determined. 100% means that all of the spider mites have been killed; 0% means that none of the spider mites have been killed.
# Phaedon cochleariae = assay: whole plant or invertebrate
# From the text: as §4, §5, §1, §2, §3
# Cabbage leaves (Brassica oleracea) are treated by spraying with the active ingredient formulation of the desired concentration and populated with larvae of the mustard beetle (Phaedon cochleariae) while the leaves are still moist.
# After the desired period of time, the kill rate in % is determined. 100% means that all beetle larvae have been killed; 0% means that none of the beetle larvae have been killed. The kill rates determined are entered into Colby's formula.
# [1] = Myzus persicae, 24 h, 0.8 g/ha, after 1 d, read-out: Kill rate in % after 1 d
# [2] = Tetranychus urticae, 144 h, 20 g/ha, after 6 d, applied individually, read-out: Kill rate in % after 6 d
# [3] = Phaedon cochleariae, 144 h, 0.16 g/ha, after 6 d, read-out: Kill rate in % after 6 d
# [4] = Myzus persicae, 144 h, 0.8 g/ha, after 6 d, read-out: Kill rate in % after 6 d
# [5] = Myzus persicae, 24 h, 20 g/ha, after 1 d, read-out: Kill rate in % after 1 d
# [6] = Myzus persicae, 24 h, read-out: Kill rate in % after 1 d
# [7] = Myzus persicae, 144 h, after 6 d, read-out: Kill rate in % after 6 d
# [8] = Tetranychus urticae, 48 h, 4 g/ha, after 2 d, applied individually, read-out: Kill rate in % after 2 d
# [9] = Myzus persicae, 24 h, after 1 d, read-out: Kill rate in % after 1 d
# [10] = Myzus persicae, 24 h, 4 g/ha, after 1 d, read-out: Kill rate in % after 1 d
# [11] = Myzus persicae, 144 h, read-out: Kill rate in % after 6 d
# [12] = Myzus persicae, 24 h, 100 g/ha, after 1 d, read-out: Kill rate in % after 1 d
molecule,measurement,setting,value
N#Cc1ccc(CC(=NNC(=O)Nc2ccc(OC(F)(F)F)cc2)c2cccc(C(F)(F)F)c2)cc1 (mixture of isomers) [metaflumizone],Kill rate in % after 1 d,"Myzus persicae; 20 g/ha, after 1 d",0%
Cc1c(COC(=O)[C@@H]2[C@H](/C=C(\Cl)C(F)(F)F)C2(C)C)cccc1-c1ccccc1 (racemic) [bifenthrin],pest or weed control at 0.16 g/ha,"Tetranychus urticae; Tetranychus urticae, 48 h, 0.16 g/ha, after 2 d, applied individually, read-out: Kill rate in % after 2 d",0%
same,pest or weed control at 0.8 g/ha,Myzus persicae; [1],80%
Cc1c(F)c(F)c(COC(=O)[C@@H]2[C@H](/C=C(\Cl)C(F)(F)F)C2(C)C)c(F)c1F (racemic) [tefluthrin],pest or weed control at 20 g/ha,Tetranychus urticae; [2],0%
"Fc1cncc(-c2ncc(-c3cccc(-c4ncccn4)n3)s2)c1 [2-{6-[2-(5-fluoropyridin-3-yl)-1,3-thiazol-5-yl]pyridin-2-yl}pyrimidine]",pest or weed control at 0.16 g/ha,Phaedon cochleariae; [3],0%
same,pest or weed control at 0.8 g/ha,Myzus persicae; [4],70%
"O=C1C=C(N(Cc2ccc(Cl)nc2)CC(F)F)CO1 [4-{[(6-chloropyrid-3-yl)methyl](2,2-difluoroethyl)amino}furan-2(5H)-one]",pest or weed control at 20 g/ha,"Tetranychus urticae; Tetranychus urticae, 48 h, 20 g/ha, after 2 d, applied individually, read-out: Kill rate in % after 2 d",0%
same,pest or weed control at 20 g/ha,Myzus persicae; [5],0%
"Cc1cc(Cl)cc(C)c1C1=C(O)C2(CCC3(CC2)OCCO3)NC1=O [11-(4-chloro-2,6-dimethylphenyl)-12-hydroxy-1,4-dioxa-9-azadispiro[4.2.4.2]tetradec-11-en-10-one]",pest or weed control at 0.8 g/ha,Myzus persicae; [4],0%
COP(=O)(NC(C)=O)SC (stereo not shown) [acephate],pest or weed control at 4 g/ha,"Phaedon cochleariae; Phaedon cochleariae, 144 h, read-out: Kill rate in % after 6 d",0%
same,pest or weed control at 100 g/ha,Myzus persicae; [6],0%
C/C(=N\C#N)N(C)Cc1ccc(Cl)nc1 [acetamiprid],pest or weed control at 0.16 g/ha,Myzus persicae; [7],0%
CC1(C)[C@H](C(=O)O[C@H](C#N)c2cccc(Oc3ccccc3)c2)[C@@H]1/C=C\C(=O)OC(C(F)(F)F)C(F)(F)F [acrinathrin],pest or weed control at 0.8 g/ha,"Tetranychus urticae; Tetranychus urticae, 48 h, after 2 d, applied individually, read-out: Kill rate in % after 2 d",0%
same,pest or weed control at 4 g/ha,Tetranychus urticae; [8],20%
same,pest or weed control at 0.8 g/ha,"Tetranychus urticae; Tetranychus urticae, 144 h, after 6 d, applied individually, read-out: Kill rate in % after 6 d",40%
same,pest or weed control at 0.8 g/ha,Myzus persicae; [1],0%
CNC(=O)O/N=C/C(C)(C)SC [aldicarb],Kill rate in % after 2 d,"Phaedon cochleariae; 0.8 g/ha, after 2 d",0%
same,pest or weed control at 0.8 g/ha,Myzus persicae; [4],0%
CC1(C)C(C=C(Cl)Cl)C1C(=O)OC(C#N)c1cccc(Oc2ccccc2)c1 (stereo not drawn) [alpha-cypermethrin],pest or weed control at 4 g/ha,Tetranychus urticae; [8],0%
same,pest or weed control at 0.16 g/ha,Myzus persicae; [9],70%
CC(C)N1C(=O)N(c2ccccc2)CS/C1=N\C(C)(C)C [buprofezin],pest or weed control at 500 g/ha,"Myzus persicae; Myzus persicae, 24 h, 500 g/ha, after 1 d, read-out: Kill rate in % after 1 d",0%
CCOP(=O)(SC(C)CC)SC(C)CC (stereo not shown) [cadusaphos],pest or weed control at 20 g/ha,Tetranychus urticae; [2],0%
same,pest or weed control at 20 g/ha,Myzus persicae; [5],0%
CNC(=O)Oc1cccc2c1OC(C)(C)C2 [carbofuran],pest or weed control at 20 g/ha,Myzus persicae; [5],70%
CCOCn1c(-c2ccc(Cl)cc2)c(C#N)c(Br)c1C(F)(F)F [chlorfenapyr],pest or weed control at 4 g/ha,Tetranychus urticae; [8],10%
same,pest or weed control at 0.16 g/ha,Myzus persicae; [7],0%
same,pest or weed control at 0.8 g/ha,Myzus persicae; [4],0%
CCOP(=S)(OCC)Oc1nc(Cl)c(Cl)cc1Cl [chlorpyrifos],pest or weed control at 100 g/ha,"Tetranychus urticae; Tetranychus urticae, 144 h, 100 g/ha, after 6 d, applied individually, read-out: Kill rate in % after 6 d",0%
same,pest or weed control at 4 g/ha,Myzus persicae; [10],80%
CN/C(=N\[N+](=O)[O-])NCc1cnc(Cl)s1 [clothianidin],pest or weed control at 20 g/ha,Myzus persicae; [5],70%
same,pest or weed control at 0.16 g/ha,Myzus persicae; [7],0%
CNC(=O)c1cc(C#N)cc(C)c1NC(=O)c1cc(Br)nn1-c1ncccc1Cl [cyantraniliprole],Kill rate in % after 2 d,"Phaedon cochleariae; 0.16 g/ha, after 2 d",0%
same,pest or weed control at 0.16 g/ha,Phaedon cochleariae; [3],0%
same,pest or weed control at 0.16 g/ha,Myzus persicae; [7],0%
CC1(C)C(C=C(Cl)Cl)C1C(=O)OC(C#N)c1cccc(Oc2ccccc2)c1 (stereo not shown) [cypermethrin],pest or weed control at 0.16 g/ha,Phaedon cochleariae; [3],0%
same,pest or weed control at 4 g/ha,Myzus persicae; [10],80%
CC1(C)[C@H](C(=O)O[C@H](C#N)c2cccc(Oc3ccccc3)c2)[C@@H]1C=C(Br)Br [deltamethrin],pest or weed control at 0.8 g/ha,Myzus persicae; [1],0%
CC(C)c1cc(Oc2ccccc2)cc(C(C)C)c1NC(=S)NC(C)(C)C [diafenthiuron],pest or weed control at 100 g/ha,"Tetranychus urticae; Tetranychus urticae, 48 h, read-out: Kill rate in % after 2 d",0%
same,pest or weed control at 20 g/ha,"Tetranychus urticae; Tetranychus urticae, 144 h, read-out: Kill rate in % after 6 d",10%
same,pest or weed control at 100 g/ha,Myzus persicae; [6],0%
same,pest or weed control at 20 g/ha,Myzus persicae; [11],70%
CN/C(=N/CC1CCOC1)N[N+](=O)[O-] (stereo not shown) [dinotefuran],Kill rate in % after 2 d,Phaedon cochleariae; in vivo,0%
CC[S+]([O-])c1c(C#N)nn(-c2c(Cl)cc(C(F)(F)F)cc2Cl)c1N (stereo not shown) [ethiprole],pest or weed control at 4 g/ha,Myzus persicae; [10],0%
CCCSP(=O)(OCC)SCCC [ethoprophos],pest or weed control at 0.8 g/ha,"Phaedon cochleariae; Phaedon cochleariae, 144 h, 0.8 g/ha, after 6 d, read-out: Kill rate in % after 6 d",0%
same,pest or weed control at 4 g/ha,Myzus persicae; [11],0%
N#Cc1nn(-c2c(Cl)cc(C(F)(F)F)cc2Cl)c(N)c1[S+]([O-])C(F)(F)F (stereo not shown) [fipronil],Kill rate in % after 2 d,"Phaedon cochleariae; 0.16 g/ha, after 2 d",67%
same,pest or weed control at 0.16 g/ha,Myzus persicae; [7],0%
N#CCNC(=O)c1cnccc1C(F)(F)F [flonicamid],Kill rate in % after 1 d,"Myzus persicae; 20 g/ha, after 1 d",0%
O=[N+]([O-])NC1=NCCN1Cc1ccc(Cl)nc1 [imidacloprid],pest or weed control at 0.8 g/ha,Myzus persicae; [1],0%
COP(N)(=O)SC (stereo not shown) [methamidophos],pest or weed control at 20 g/ha,Myzus persicae; [5],0%
same,pest or weed control at 100 g/ha,Myzus persicae; [12],80%
CNC(=O)Oc1cc(C)c(SC)c(C)c1 [methiocarb],pest or weed control at 20 g/ha,Myzus persicae; [5],0%
CC1=NNC(=O)N(/N=C/c2cccnc2)C1 [pymetrozine],pest or weed control at 100 g/ha,Myzus persicae; [12],0%
Cc1cc(C)c(C2=C(OC(=O)CC(C)(C)C)C3(CCCC3)OC2=O)c(C)c1 [spiromesifen],Kill rate in % after 6 d,"Tetranychus urticae; 4 g/ha, after 6 d, applied individually",70%
same,Kill rate in % after 6 d,"Tetranychus urticae; 20 g/ha, after 6 d, applied individually",80%
same,Kill rate in % after 1 d,"Myzus persicae; 4 g/ha, after 1 d",0%
CCOC(=O)OC1=C(c2cc(C)ccc2C)C(=O)N[C@]12CC[C@@H](OC)CC2 [spirotetramat],pest or weed control at 4 g/ha,Tetranychus urticae; [8],0%
CC(c1ccc(C(F)(F)F)nc1)S(C)(=O)=NC#N (stereo not shown) [sulfoxaflor],pest or weed control at 0.16 g/ha,Myzus persicae; [9],0%
N#C/N=C1\SCCN1Cc1ccc(Cl)nc1 [thiacloprid],pest or weed control at 20 g/ha,Myzus persicae; [5],80%
same,pest or weed control at 0.8 g/ha,Myzus persicae; [4],80%
CN1COCN(Cc2cnc(Cl)s2)/C1=N\[N+](=O)[O-] [thiamethoxam],pest or weed control at 20 g/ha,Myzus persicae; [5],70%
CS/C(C)=N\OC(=O)N(C)SN(C)C(=O)O/N=C(\C)SC [thiodicarb],pest or weed control at 100 g/ha,"Tetranychus urticae; Tetranychus urticae, 48 h, 100 g/ha, after 2 d, applied individually, read-out: Kill rate in % after 2 d",0%
same,pest or weed control at 20 g/ha,Myzus persicae; [5],0%
CC1(C)[C@H](C=C(Cl)Cl)[C@H]1C(=O)OCc1c(F)c(F)cc(F)c1F [transfluthrin],pest or weed control at 20 g/ha,Myzus persicae; [5],70%
milbemectin,Kill rate in % after 2 d,"Tetranychus urticae; 0.032 g/ha, after 2 d, applied individually",50%
same,Kill rate in % after 6 d,"Myzus persicae; 0.032 g/ha, after 6 d",0%
same,Kill rate in % after 1 d,"Myzus persicae; 0.8 g/ha, after 1 d",0%
